From ChEMBL document CHEMBL5576124, “Discovery of an Exceptionally Orally Bioavailable and Potent HPK1 PROTAC with Enhancement of Antitumor Efficacy of Anti-PD-L1 Therapy” (J Med Chem, 2024)
Active and inactive are the calls of the source. The calls are words filed in the database; no cut-off is given here.

Legend:
[1] = target: T1, Protein cereblon/Mitogen-activated protein kinase kinase kinase kinase 1 (Homo sapiens, UniProt Q92918+Q96SW2); experiment: PROTAC activity at CRBN/HPK1 in human Jurkat cells assessed as degradation of HPK1 protein incubated for 24 hrs by Western blotting analysis; type: cell-based
Target sequence in this assay (Q92918 whole entry): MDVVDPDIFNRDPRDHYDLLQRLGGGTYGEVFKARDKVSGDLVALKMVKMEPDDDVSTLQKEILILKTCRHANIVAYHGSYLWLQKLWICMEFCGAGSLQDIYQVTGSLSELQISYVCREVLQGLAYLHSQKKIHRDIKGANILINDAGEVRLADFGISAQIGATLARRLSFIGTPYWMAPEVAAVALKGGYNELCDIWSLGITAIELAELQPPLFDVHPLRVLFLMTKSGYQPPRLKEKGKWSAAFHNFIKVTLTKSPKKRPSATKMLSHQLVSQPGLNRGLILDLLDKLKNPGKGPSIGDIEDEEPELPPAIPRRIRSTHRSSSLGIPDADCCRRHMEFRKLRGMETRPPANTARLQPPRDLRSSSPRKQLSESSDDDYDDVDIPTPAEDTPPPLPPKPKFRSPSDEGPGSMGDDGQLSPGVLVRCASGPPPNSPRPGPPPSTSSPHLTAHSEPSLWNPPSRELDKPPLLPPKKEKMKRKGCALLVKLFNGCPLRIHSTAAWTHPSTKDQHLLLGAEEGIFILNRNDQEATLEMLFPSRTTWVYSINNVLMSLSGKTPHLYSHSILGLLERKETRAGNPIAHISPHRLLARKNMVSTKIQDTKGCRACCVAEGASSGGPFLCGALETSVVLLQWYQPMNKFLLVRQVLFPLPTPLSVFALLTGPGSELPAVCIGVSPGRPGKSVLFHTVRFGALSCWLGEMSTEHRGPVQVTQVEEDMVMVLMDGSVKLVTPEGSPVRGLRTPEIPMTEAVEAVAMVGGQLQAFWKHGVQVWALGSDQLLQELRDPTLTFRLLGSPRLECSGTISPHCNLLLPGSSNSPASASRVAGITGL
Target sequence in this assay (Q96SW2 whole entry): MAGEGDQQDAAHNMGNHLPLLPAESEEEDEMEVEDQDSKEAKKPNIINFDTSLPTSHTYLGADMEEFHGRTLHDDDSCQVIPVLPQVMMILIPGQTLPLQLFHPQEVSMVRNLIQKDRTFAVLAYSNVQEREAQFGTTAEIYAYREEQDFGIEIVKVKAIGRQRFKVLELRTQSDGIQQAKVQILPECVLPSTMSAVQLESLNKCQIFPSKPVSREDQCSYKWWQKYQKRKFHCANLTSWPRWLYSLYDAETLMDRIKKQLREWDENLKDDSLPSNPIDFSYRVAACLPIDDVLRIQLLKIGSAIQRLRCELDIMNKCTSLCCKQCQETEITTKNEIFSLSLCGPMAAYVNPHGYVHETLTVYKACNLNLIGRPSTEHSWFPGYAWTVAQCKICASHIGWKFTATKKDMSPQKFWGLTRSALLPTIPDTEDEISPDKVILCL

[2] = target: T1, Protein cereblon/Mitogen-activated protein kinase kinase kinase kinase 1; experiment: PROTAC activity at CRBN/HPK1 in human Jurkat cells assessed as maximal degradation of HPK1 protein incubated for 24 hrs by Western blotting analysis relative to control; type: cell-based
Target sequence in this assay (Q92918 whole entry, looked up): as the sequence (Q92918 whole entry) above
Target sequence in this assay (Q96SW2 whole entry, looked up): as the sequence (Q96SW2 whole entry) above

[3] = AUC (0 to t) in Sprague-Dawley rat at 10 mg/kg,po measured upto 24 hrs by LC-MS analysis; type: ADME, organism-based; details: in vivo
[4] = Tmax in Sprague-Dawley rat at 10 mg/kg,po measured upto 24 hrs by LC-MS analysis; type: ADME, organism-based; details: in vivo
[5] = Cmax in Sprague-Dawley rat at 10 mg/kg,po measured upto 24 hrs by LC-MS analysis; type: ADME, organism-based; details: in vivo
[6] = MRT in Sprague-Dawley rat at 10 mg/kg,po measured upto 24 hrs by LC-MS analysis; type: ADME, organism-based; details: in vivo
[7] = Half life in Sprague-Dawley rat at 10 mg/kg,po measured upto 24 hrs by LC-MS analysis; type: ADME, organism-based; details: in vivo
[8] = target: T1, Protein cereblon/Mitogen-activated protein kinase kinase kinase kinase 1; experiment: PROTAC activity at CRBN/HPK1 in human Jurkat cells assessed as maximal degradation of HPK1 protein incubated for 24 hrs by Nano-Glo luminescence assay relative to control; type: cell-based
Target sequence in this assay (Q92918 whole entry, looked up): as the sequence (Q92918 whole entry) above
Target sequence in this assay (Q96SW2 whole entry, looked up): as the sequence (Q96SW2 whole entry) above

Jurkat [9] = experiment: Antiproliferative activity against human Jurkat cells assessed as inhibition of cell growth at 2 uM incubated for 3 days by CCK-8 assay; type: functional, cell-based; details: time 3.0 day
CT26 = experiment: Antitumor activity against mouse CT26 cells implanted BALB/c mouse model assessed as tumor growth inhibition at 25 mg/kg,po administrated once daily for 15 days relative to control; type: functional; details: CT26, 360 h, time 15 day, read-out: TGI
Jurkat [10] = experiment: Antiproliferative activity against human Jurkat cells assessed as inhibition of cell growth at 10 uM incubated for 3 days by CCK-8 assay; type: functional, cell-based; details: time 3.0 day
[11] = target: Mitogen-activated protein kinase kinase kinase kinase 1 (Homo sapiens, UniProt Q92918); experiment: Inhibition of HPK1 (unknown origin)
T-cell line = experiment: Immunostimulatory activity in human T cell assessed as increase in IL-2 secretion at 10 uM relative to control; type: functional

Sequence of Mitogen-activated protein kinase kinase kinase kinase 1 (Q92918 whole entry): as the sequence (Q92918 whole entry) above

Row | Compound | DC50 [1] [nM] | Emax [2] [%] | also measured
1 | Cc1cc(-c2c[nH]c3ncc(-c4ccc(C5CCN(C6CN(c7cccc8c7C(=O)N(C7CCC(=O)NC7=O)C8=O)C6)CC5)cc4)nc23)ccc1C(=O)N(C)C (stereo not drawn) | 152 | 64.9 | 
2 | Cc1cc(-c2c[nH]c3ncc(-c4ccc(C5CCN(c6cccc7c6C(=O)N(C6CCC(=O)NC6=O)C7=O)CC5)cc4)nc23)ccc1C(=O)N(C)C (stereo not drawn) | > 10000 | 2.8 | 
3 | Cc1cc(-c2c[nH]c3ncc(-c4ccc(C5CCN(C6CN(C(=O)Cc7ccc(NC8CCC(=O)NC8=O)cc7)C6)CC5)cc4)nc23)ccc1C(=O)N(C)C (stereo not drawn) | > 10000 | 38.5 | 
4 | Cc1cc(-c2c[nH]c3ncc(-c4ccc(C5CCN(C6CN(C(=O)C7CCN(c8ccc(C(=O)NC9CCC(=O)NC9=O)cc8)CC7)C6)CC5)cc4)nc23)ccc1C(=O)N(C)C (stereo not drawn) | > 10000 | 24.2 | 
5 | Cc1cc(-c2c[nH]c3ncc(-c4ccc(C5CCN(C(=O)CNc6cccc7c6C(=O)N(C6CCC(=O)NC6=O)C7=O)CC5)cc4)nc23)ccc1C(=O)N(C)C (stereo not drawn) | > 10000 | 0.1 | 
6 | Cc1cc(-c2c[nH]c3ncc(-c4ccc(C5CCN(C6CN(C(=O)C7CCN(c8ccc(NC9CCC(=O)NC9=O)cc8)CC7)C6)CC5)cc4)nc23)ccc1C(=O)N(C)C (stereo not drawn) | > 10000 | 41.4 | 
7 | Cc1cc(-c2c[nH]c3ncc(-c4ccc(C5CCN(C(=O)CCOCCOCCOc6cccc7c6C(=O)N(C6CCC(=O)NC6=O)C7=O)CC5)cc4)nc23)ccc1C(=O)N(C)C (stereo not drawn) | 245 | 56.6 | AUC(0-t) at 24 h [3]: 187 ng·h/mL; Tmax [4]: 0.5 h; Cmax [5]: 118 ng/mL; MRT [6]: 3.6 h; half-life [7]: 2.3 h
8 | Cc1cc(F)c(Nc2nc(-c3ccc4c(c3)N(C3CC(N5CCCCC5)C3)C(=O)C43CCN(CCOCCOCCOCCOCCOCCOCCOCCNc4cccc5c4C(=O)N(C4CCC(=O)NC4=O)C5=O)CC3)cc3ncn(C(C)C)c23)cc1C(=O)NC(C)C (stereo not drawn) |  |  | Emax [8]: > 65%
9 | Cc1cc(-c2c[nH]c3ncc(-c4ccc(C5CCN(C6CN(CC7CCN(c8ccc(N9CCC(=O)NC9=O)c(C)c8)CC7)C6)CC5)cc4)nc23)ccc1C(=O)N(C)C | 127 | 79.3 | 
10 | Cc1cc(-c2c[nH]c3ncc(-c4ccc(C5CCN(C(=O)CCNc6cccc7c6C(=O)N(C6CCC(=O)NC6=O)C7=O)CC5)cc4)nc23)ccc1C(=O)N(C)C (stereo not drawn) | 962 | 63.6 | 
11 | Cc1cc(-c2c[nH]c3ncc(-c4ccc(C5CCN(C(=O)CCOc6cccc7c6C(=O)N(C6CCC(=O)NC6=O)C7=O)CC5)cc4)nc23)ccc1C(=O)N(C)C (stereo not drawn) | > 10000 | 6.7 | 
12 | Cc1cc(-c2c[nH]c3ncc(-c4ccc(C5CCN(C6CN(C(=O)CNc7cccc8c7C(=O)N(C7CCC(=O)NC7=O)C8=O)C6)CC5)cc4)nc23)ccc1C(=O)N(C)C (stereo not drawn) | > 10000 | 22.7 | 
13 | Cc1cc(-c2c[nH]c3ncc(-c4cc(C)c5c(c4)CN(C)CC5)nc23)ccc1C(=O)N(C)C |  |  | Activity (Jurkat [9]): Active; inhibition in vivo at 25 mg/kg (CT26): 16.5%; Activity (Jurkat [10]): Active; IC50 [11]: 5.82 nM; Activity (T-cell line): 34.15%
14 | Cc1cc(-c2c[nH]c3ncc(-c4ccc(C5CCN(C6CN(c7cc8c(cc7F)C(=O)N(C7CCC(=O)NC7=O)C8=O)C6)CC5)cc4)nc23)ccc1C(=O)N(C)C (stereo not drawn) | 78.8 | 84.2 | 

Further lines, with some results ahead:

Row | DC50 [1] [nM] | Emax [2] [%] | Compound | also measured
15 | 295 | 58.1 | Cc1cc(-c2c[nH]c3ncc(-c4ccc(C5CCN(C6CN(C7CN(c8ccc9c(c8)C(=O)N(C8CCC(=O)NC8=O)C9=O)C7)C6)CC5)cc4)nc23)ccc1C(=O)N(C)C (stereo not drawn) | 
16 | > 10000 | 48.2 | Cc1cc(-c2c[nH]c3ncc(-c4ccc(N5CCN(CCC6CCN(c7ccc8c(c7)C(=O)N(C7CCC(=O)NC7=O)C8=O)CC6)CC5)cc4)nc23)ccc1C(=O)N(C)C (stereo not drawn) | 
17 | 33.9 | 59.9 | Cc1cc(-c2c[nH]c3ncc(-c4ccc(N5CCN(CC6CCN(c7ccc8c(c7)C(=O)N(C7CCC(=O)NC7=O)C8=O)CC6)CC5)cc4)nc23)ccc1C(=O)N(C)C (stereo not drawn) | AUC(0-t) at 24 h [3]: 9970 ng·h/mL; Tmax [4]: 4 h; Cmax [5]: 636 ng/mL; MRT [6]: 24.6 h; half-life [7]: 16.7 h
18 | > 10000 | 38 | Cc1cc(-c2c[nH]c3ncc(-c4ccc(C5CCN(CC6CCN(C7CN(c8ccc9c(c8)C(=O)N(C8CCC(=O)NC8=O)C9=O)C7)CC6)CC5)cc4)nc23)ccc1C(=O)N(C)C (stereo not drawn) | 
19 | 246 | 56.6 | Cc1cc(-c2c[nH]c3ncc(-c4ccc(N5CCN(CC6CCN(c7ccc8c(c7)C(=O)N(C7CCC(=O)NC7=O)C8=O)C6)CC5)cc4)nc23)ccc1C(=O)N(C)C (stereo not drawn) | 
20 | > 10000 | 39.4 | Cc1cc(-c2c[nH]c3ncc(-c4ccc(C5CCN(C6CN(C(=O)C7CN(c8ccc9c(c8)C(=O)N(C8CCC(=O)NC8=O)C9=O)C7)C6)CC5)cc4)nc23)ccc1C(=O)N(C)C (stereo not drawn) | 
21 | 420 | 84.1 | Cc1cc(-c2c[nH]c3ncc(-c4ccc(C5CCN(CC6CCN(c7ccc8c(c7)C(=O)N(C7CCC(=O)NC7=O)C8=O)CC6)CC5)cc4)nc23)ccc1C(=O)N(C)C (stereo not drawn) | 
22 | > 10000 | 37.9 | Cc1cc(-c2c[nH]c3ncc(-c4ccc(N5CCN(c6cccc7c6C(=O)N(C6CCC(=O)NC6=O)C7=O)CC5)cc4)nc23)ccc1C(=O)N(C)C (stereo not drawn) | AUC(0-t) at 24 h [3]: 4470 ng·h/mL; Tmax [4]: 1 h; Cmax [5]: 602 ng/mL; MRT [6]: 6.8 h; half-life [7]: 4.4 h
23 | 1060 | 58.5 | Cc1cc(-c2c[nH]c3ncc(-c4ccc(C5CCN(CCC6CCN(c7ccc8c(c7)C(=O)N(C7CCC(=O)NC7=O)C8=O)CC6)CC5)cc4)nc23)ccc1C(=O)N(C)C (stereo not drawn) | 
24 | 78.8 | 84.1 | Cc1cc(-c2c[nH]c3ncc(-c4ccc(C5CCN(CC6CCN(c7ccc8c(c7)C(=O)N(C7CCC(=O)NC7=O)C8=O)C6)CC5)cc4)nc23)ccc1C(=O)N(C)C (stereo not drawn) | 
25 | 134 | 94.6 | Cc1cc(-c2c[nH]c3ncc(-c4ccc(N5CCN(CC6CN(c7ccc8c(c7)C(=O)N(C7CCC(=O)NC7=O)C8=O)C6)CC5)cc4)nc23)ccc1C(=O)N(C)C (stereo not drawn) | AUC(0-t) at 24 h [3]: 16000 ng·h/mL; Tmax [4]: 3 h; Cmax [5]: 1500 ng/mL; MRT [6]: 6.84 h; half-life [7]: 4.86 h
26 | 1750 | 63.6 | Cc1cc(-c2c[nH]c3ncc(-c4ccc(C5CCN(C(=O)C6CCN(c7ccc8c(c7)C(=O)N(C7CCC(=O)NC7=O)C8=O)CC6)CC5)cc4)nc23)ccc1C(=O)N(C)C (stereo not drawn) | 
27 | > 10000 | 42.6 | Cc1cc(-c2c[nH]c3ncc(-c4ccc(C5CCN(C(=O)C6CN(c7ccc8c(c7)C(=O)N(C7CCC(=O)NC7=O)C8=O)C6)CC5)cc4)nc23)ccc1C(=O)N(C)C (stereo not drawn) | 
28 | > 10000 | 3.4 | Cc1cc(-c2c[nH]c3ncc(-c4ccc(C5CCN(c6ccc7c(c6)C(=O)N(C6CCC(=O)NC6=O)C7=O)CC5)cc4)nc23)ccc1C(=O)N(C)C (stereo not drawn) | 
29 | 28.2 | 68.3 | Cc1cc(-c2c[nH]c3ncc(-c4ccc(N5CCN(C6CN(c7ccc8c(c7)C(=O)N(C7CCC(=O)NC7=O)C8=O)C6)CC5)cc4)nc23)ccc1C(=O)N(C)C (stereo not drawn) | 
30 | > 10000 | 30.1 | Cc1cc(-c2c[nH]c3ncc(-c4ccc(C5CCN(C6CN(C(=O)C7CCN(c8ccc9c(c8)C(=O)N(C8CCC(=O)NC8=O)C9=O)CC7)C6)CC5)cc4)nc23)ccc1C(=O)N(C)C (stereo not drawn) | 
31 | 94 | 76.6 | Cc1cc(-c2c[nH]c3ncc(-c4ccc(C5CCN(C6CCN(c7ccc8c(c7)C(=O)N(C7CCC(=O)NC7=O)C8=O)C6)CC5)cc4)nc23)ccc1C(=O)N(C)C (stereo not drawn) | 
32 | 99.2 | 56.1 | Cc1cc(-c2c[nH]c3ncc(-c4ccc(N5CCN(C6CCN(c7ccc8c(c7)C(=O)N(C7CCC(=O)NC7=O)C8=O)CC6)CC5)cc4)nc23)ccc1C(=O)N(C)C (stereo not drawn) | 
33 | > 10000 | 22.3 | Cc1cc(-c2c[nH]c3ncc(-c4ccc(N5CCN(c6ccc7c(c6)C(=O)N(C6CCC(=O)NC6=O)C7=O)CC5)cc4)nc23)ccc1C(=O)N(C)C (stereo not drawn) | 
